Each structure is given as a SMILES string.

What is called melting point is the temperature, or range, at which the solid turns liquid. On to `CCC(Oc1c(C)cc(C)cc1C)C(=O)OC1CC(O)C=C2C=CC(C)C(CCC3CC(O)CC(=O)O3)C21` (mixture of isomers), for which the melting point lay in the range of 134 to 136 °C. Consider `COc1cc(Nc2c(C#N)cnc3cc4ccccc4cc23)c(C)cc1Cl`, for which the melting point is 195 to 197 °C. Then `N#CN=C(Nc1cccnc1)NC(NC(=O)c1ccccc1)C(Cl)(Cl)Cl` (stereo not given), with 133 to 135 °C; and `Cc1ccc(-c2n[nH]c(=O)c(-c3ccccc3)c2-c2ccc(C)cc2)cc1`, with 282 to 284 °C. `O=C(Nc1nccs1)C(CC1CCCC1)c1cccc(C(F)(F)F)c1` (stereo not given) returned a melting point of 134 to 136 °C. Then `CC(C)c1cc(Br)c(C(C)C)cc1S`, with 72 to 75 °C. Consider `O=C1N(Cc2ccc(C(F)(F)F)o2)c2c(F)cccc2C12COc1cc3c(cc12)OCO3` (stereo not given), for which the melting point lay within 116 to 118 °C. Molecule `O=C(c1ccc(Cl)cc1)C(CC1OCCO1)Sc1ccccc1` (stereo not given) yielded a melting point of 74 to 75 °C. The molecule `O=C(O)c1cccc2c1CC(c1csc(-c3ccncc3)n1)C(=O)N2` (stereo not given) gave a melting point of over 250 °C. `CN1C(=O)Nc2ccc(Cl)cc2C1(C#CC1(C)CC1)C(F)(F)F` (stereo not given) had a melting point of 206 to 208 °C.

Molecule `COc1cc(C(F)(F)F)cc(Cl)c1-n1nc(C#N)c(SC(C)(F)F)c1N` registered a melting point of 79 °C. Then `CC(C)c1c(-c2cc(C(F)(F)F)cc(C(F)(F)F)c2)ccc2nc(N)nc(N)c12`, with 212 to 214 °C. The molecule `Cc1cc(-c2ccc(C(F)(F)F)cc2)nc(Oc2cccc(C(F)(F)F)c2)n1` returned a melting point of 124 to 127 °C. With `CCOC(=O)c1c(Sc2ccccc2)n(C2CC2)c2c(F)c(F)c(F)cc2c1=O`, the melting point fell in the range of 135 to 137 °C. Then `CC(C(=O)N(C)C)n1cc(Br)c(-c2ccccc2)n1` (stereo not given), with 90.5 to 91.5 °C; and `O=c1c2cnc3ccc(C(F)(F)F)cc3c2on1-c1ccccc1`, with 175 °C; and `CCOC(=O)N1CCN=C1CC(c1ccccc1)c1ccccc1`, with 78 to 80 °C. Then `CCOC(=O)N1CCC2(CC1)OC(c1ccccc1)c1ccccc12` (stereo not given), with 115 to 119 °C; and `CC(C)(C)c1cc(CSCN(O)CSCc2cc(C(C)(C)C)c(O)c(C(C)(C)C)c2)cc(C(C)(C)C)c1O`, with 98 to 101 °C; and `O=C1NC(=O)C(Cc2ccc(OCc3nc4cccnc4n3Cc3ccc(Cl)cc3)cc2)S1` (stereo not given), with 211 to 213 °C. Then `CN=C(SC)N(C)Cc1cccnc1Cl`, with 106 to 113 °C; and `c1cnn(Cc2ccc3c(c2)Cc2c(-c4ccsc4)n[nH]c2-3)n1`, with 238 to 241 °C. The molecule `CCCO/N=C(\C(=O)OC)c1csc(N)n1` returned a melting point of 115 to 116 °C.

`COc1cc(Cl)c2nc(Cl)nc(O)c2c1OC` displayed a melting point of 252 to 253 °C. Molecule `CC(C)(C)[Si](Oc1ccc(C=O)cc1)(c1ccccc1)c1ccccc1` came in with a melting point of 103 to 105 °C. Then `COc1cccc(NC(=O)C(C)(C)C)c1C(C)=O`, with under 48 °C.

As to `COc1ccc(-c2ccc(C(F)(F)CC(CC(O)CSc3ccccc3)C(=O)O)cc2)cc1` (stereo not given), the melting point lay in the range of 85 to 86 °C.

`CC[C@H](NS(=O)(=O)c1ccc(OC)cc1)C(=O)OC` yielded a melting point of 64 °C.

In turn, `CCOCc1nc2c(N)nc3cc(Br)ccc3c2n1CC1CCOCC1` came in with a melting point of 186 to 188 °C. With `CCOC(=O)C1=C(COCC(N)=O)NC(C)=C(C(=O)OC)C1c1ccccc1Cl` (stereo not given) the figure was 127 to 128 °C.

For `c1ccc(Oc2ccc(OCCOn3cccn3)cc2)cc1`, the melting point is 83 to 85 °C.

As for `O=C(Nc1cccc(S(=O)(=O)NCC2CC2)c1)c1cnn2c(C(F)(F)F)cc(-c3ccc(C(F)(F)F)cc3)nc12`, the melting point came out at 234 °C. In the case of `CC(=O)NC1CCc2c([nH]c3ccc(F)cc23)C1` (stereo not given), the melting point lay within 209 to 210 °C. Then `Cc1ccc(CCN2CCC[C@H](C(C#N)(c3ccccc3)c3ccccc3)C2)cc1`, with 110 to 113 °C; and `CCCCCCCCCCCCCCCCCCNC(=O)OCC(CN)OC(=O)NC` (stereo not given), with 49 to 50.5 °C. With `O=c1c2[nH]c(N(S(=O)(=O)c3ccccc3)S(=O)(=O)c3ccccc3)nc2n(CC2CC2)c(=O)n1CC1CC1` the figure was 238 °C; with `CCc1cn(C2OC(CNC(=O)C(C)Oc3c(Cl)cc(Cl)c(OC)c3Cl)C(O)C2F)c(=O)[nH]c1=O` (stereo not given), 210 to 211 °C; with `COc1ccc(N2CCOCC2)c2sc(-c3nc4ccccc4[nH]3)nc12`, 284 to 286 °C. In turn, `CCC(C)S(=O)(=O)NN(CCC(=O)O)C(=O)c1ccc2nc(CCC3CCNCC3)[nH]c2c1` (stereo not given) showed a melting point of 180 to 185 °C. With `O=C(O)c1ccc(S(=O)(=O)Cl)cc1O` the figure was 173 °C.

Regarding `NC(=O)C1(CCCNC2CC2)c2ccccc2-c2ccccc21`, the melting point was in the range of 163 to 165 °C.

On to `CSc1cc2ccccc2cc1C=Cc1cc2ccccc2cc1SC`, for which the melting point is 195 to 196 °C. Molecule `C[C@@H](CN1CCc2ccc3c(c21)CCO3)NC(=O)OC(C)(C)C` gave a melting point of 141 to 142 °C. For the molecule `Cc1ccc(NC(=O)c2cccc(C(F)(F)F)c2)cc1-c1ccc2cnncc2c1`, the melting point was 97 to 100 °C.

Consider `NCCCP(=O)(O)c1ccccc1`, for which the melting point was in the range of 298 to 300 °C. With `Cc1cc(C2CC2)nc(N)n1`, the melting point fell in the range of 113 to 115 °C. As for `Cc1ccc(-c2nc3ccccc3[nH]2)nc1`, the melting point was in the range of 229 to 230 °C. Then `CN1C(=O)C(F)N=C(c2ccccc2Cl)c2ccc(Cl)cc21` (stereo not given), with 204 to 205 °C; and `Cn1nc(-c2ccccc2)cc1Cl`, with 61 to 62 °C. On to `CC(=O)NC1CCCCC1`, for which the melting point fell in the range of 108 to 109 °C. `CCN(CC)CCCNC(=O)Cn1c(-c2ccc(Cl)cc2)nc2cccnc21` gave a melting point of 172 to 174 °C. Then `COCCNC(=O)c1cccc(-c2cccc3c2nc(Oc2cccc(C(F)(F)F)c2)n3C)c1`, with 146 to 147 °C. Molecule `COc1cc(C(=O)n2ccnc2)cc([N+](=O)[O-])c1OC` showed a melting point of 136 to 137 °C. Consider `O=C(O)c1ccc(-c2ccc(C(F)(F)F)cc2)s1`, for which the melting point is 227 °C. Then `Cc1cc(C)nc(NC(=O)NS(=O)(=O)c2ccccc2C(Cl)Cl)n1`, with 195 to 197 °C; and `Cc1ccc(-c2ccc(S(N)(=O)=O)cc2)n1-c1ccc(Cl)cc1`, with 152 to 154 °C. `O=C(CBr)c1coc2ccccc2c1=O` came in with a melting point of 140 to 145 °C. Then `O=C(NCc1cccnc1)Nc1ccc(S)cc1`, with 155 to 159 °C. Regarding `N#Cc1c[nH]cc1-c1ccccc1C(F)(F)F`, the melting point lay within 105 to 107 °C. Then `Cc1nc2c([N+](=O)[O-])cc(Br)cc2n1COCc1ccccc1`, with 106 to 109 °C; and `O=C(CN1C(=O)C2(COc3cc(Cl)ccc32)c2ccccc21)Nc1ccccc1F` (stereo not given), with 70 to 75 °C; and `COc1ccccc1CN[C@H]1CCCN(CCCCCC(=O)O)[C@H]1c1ccccc1` (relative stereo), with 53 to 65 °C. For `COC(=O)c1c(N)cc(Cl)cc1[N+](=O)[O-]`, the melting point lay within 114 to 116 °C.

For `COc1cc2c(cc1OCc1ccccc1)CCN(Cc1ccncc1)C2`, the melting point lay within 125 to 126 °C. `COc1ccc2[nH]c(C(C)C)c(C=C3SC(=S)N(CC(=O)O)C3=O)c2c1`: the melting point lay in the range of 255 to 260 °C. With `CN(CCN(O)C(N)=O)Cc1cccc(Oc2cc(Cl)cc(Cl)c2)c1` the figure was 111 to 113 °C. The molecule `Cc1ccc(S(=O)(=O)n2c(CCCC(=O)O)cc3nc(Cl)ccc32)c(Cl)c1` had a melting point of 168 to 169 °C. With `CN(C)Cc1c(-c2ccccn2)[nH]c2ncnc(Nc3cccc(Cl)c3)c12` the figure was 247 to 251 °C; with `O=C(O)c1ccc(F)c(Nc2ncccc2-c2ccncn2)c1`, 95 °C. Then `COc1ccc2c(c1)CC(C)(CN1CCN(c3ccccc3)CC1)NC2=O` (stereo not given), with 93 to 95 °C. Turning to `O=c1[nH]c2ncccc2c(=O)n1-c1ccccc1`, the melting point amounted to 304 °C.

`Cc1[nH]c(-c2ccccc2F)c(C)c1C#N`: the melting point is 125 to 127 °C. With `CCCOC(=O)c1cc(C(=O)Nc2ccccc2O)cc(Br)c1O` the figure was 198 to 200 °C; with `Cc1c(NC(=O)CC(C)(C)C)cc2c(c1C)OC(C)(C)C2Cc1ccc(C(C)C)cc1` (stereo not given), 130 to 132 °C; with `CNC(=O)ON=C1SCCN(C(=O)NC)C1=O`, 187 to 189 °C.

Take `CCCCNC(=O)NS(=O)(=O)c1cccc2c1nnn2C`: the melting point is 170 to 173 °C. In turn, `N#Cc1cc(N2C=CN=CC2)c[nH]c1=O` yielded a melting point of over 250 °C. Then `CCC(CC)C(c1ccnn1-c1ccccc1)N(C)S(=O)(=O)c1cc(Cl)c(Cl)s1` (stereo not given), with 99 to 100 °C; and `O=C1NCN(c2ccccc2)C12CCN(CCCn1c(=O)[nH]c3cccc(Cl)c31)CC2`, with 258 °C; and `Cc1sc(N2C(=O)c3ccccc3C2=O)c(C(=O)c2ccc(Cl)cc2)c1CN1CCN(c2ccc(F)cc2)CC1`, with 110 to 112 °C. On to `CCOC(=O)c1cccn2c(S(=O)(=O)Cl)c(C)nc12`, for which the melting point lay in the range of 182 to 183 °C. With `FC(F)(F)CNc1nc(Cl)nc(Cl)n1` the figure was 115 to 118 °C; with `CCOC(=O)c1ccc(-c2ncc(-c3ccc(Cl)cc3)o2)cc1`, 195 to 197 °C.

Consider `Cc1nn(C)c2nc(-c3ccccc3)cc(O)c12`, for which the melting point lay within 262 to 264 °C.

Regarding `O=C(CNC(=O)c1cc([N+](=O)[O-])c(F)cc1Cl)OCc1ccccc1`, the melting point lay within 108 to 110 °C. With `N#Cc1ccc2ccc(CBr)cc2c1` the figure was 110 to 116 °C; with `COc1ccc(/C=C/C(=O)C2C(=O)CC(c3ccc(OC)cc3)C([N+](=O)[O-])C2c2cccs2)cc1` (stereo not given), 160 to 162 °C; with `CCc1cccc(C)c1N(CCCC(=O)O)C(=O)CCN(C(C)=O)c1c(C)cccc1C`, 139 to 141 °C. `O=c1ccc(-c2ccc(Cl)c(Cl)c2)nn1CN1CCN(Cn2nc(-c3ccc(Cl)c(Cl)c3)ccc2=O)CC1` gave a melting point of 234 to 236 °C. With `CC(C=Cc1ccc(C(=O)O)cc1)c1ccccc1` (stereo not given) the figure was 127 to 130 °C.
